Columns and labels:
[1] = biological target: T1, RORγt-LBD (Homo sapiens, UniProt P51449); test: Time-resolved fluorescence resonance energy-transfer assay (TR-FRET), co-activator peptide recruitment; assay type: biochemical; parameters: TR-FRET Biochemical Amax: unit not given here; conditions: for EC50: His-RORγt-LBD 30 nM, SRC peptide 500 nM, agonistic activity, averages of one or more measurements, read-out: TR-FRET Biochemical EC50/; for TR-FRET Biochemical Amax: upper activation limit, His-RORγt-LBD, SRC peptide
T1 sequence (P51449 269-508 limits assumed): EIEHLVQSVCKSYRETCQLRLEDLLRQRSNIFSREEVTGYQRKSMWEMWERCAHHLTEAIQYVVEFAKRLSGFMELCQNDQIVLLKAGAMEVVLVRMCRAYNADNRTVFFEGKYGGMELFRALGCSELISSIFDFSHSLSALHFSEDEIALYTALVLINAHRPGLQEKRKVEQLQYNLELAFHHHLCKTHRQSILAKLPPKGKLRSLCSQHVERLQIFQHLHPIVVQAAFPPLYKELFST
Method in brief: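 This agonist-mode TR-FRET used 30 nM His-tagged RORγt-LBD, 500 nM biotinylated SRC peptide, 0.25 nM Eu-anti-His and 5 nM APC-streptavidin in pH 7.0 Tris/KCl buffer with DTT and Triton. A 7-concentration, 5-fold compound series was incubated at 4 °C overnight plus 1 h at room temperature, and the 665/615 nm signal was read.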

[2] = biological target: T2, RORγt (Homo sapiens, UniProt P51449); test: RORγt cellular reporter gene detection assay; assay type: cell-based; conditions: 24 hrs; for EC50: HEK 293 cells co-transfected with pFN26A-RORγt-LBD and pG14.35, in presence of antagonist Ursolic acid, top concentration 50 μM; for Cellular Reporter Assay Amax: upper activation limit, HEK 293 cells, in presence of antagonist Ursolic acid;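 as to Cellular Reporter Assay Amax: Ursolic Acid added as 5 µL of 20 µM medium per well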
T2 construct: The plasmid of pFN26A-RORγt-LBD and pG14.35 (Promega, Cat. No. E1370) were co-transfected into HEK 293 cells; expressed in transfected cells; host or cells: HEK 293 cells (Cat. No. GNHu18)
T2 sequence (P51449 269-508 limits assumed): T1 sequence (P51449 269-508 limits assumed)
Method in brief: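 Compounds, titrated 4-fold from a 50 μM top concentration, were added with Ursolic acid to HEK293 cells carrying a RORγt-LBD plasmid and a reporter plasmid. After 24 h at 37° C, dual firefly/Renilla luciferase readout; four-parameter curves gave EC50 and maximal activation (Amax).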

SMILES | EC50 [1] [nM] | TR-FRET Biochemical Amax [1] | EC50 [2] [nM] | Cellular Reporter Assay Amax [2]
CC(=O)N1CCN2c3ccc(/C=C(\C)c4c(F)cccc4Cl)cc3N(S(=O)(=O)c3cccc(C(F)(F)F)c3)C[C@@H]2C1 [Example 15, (S,E)-1-(8-(2-(2-chloro-6-fluorophenyl)prop-1-en-1-yl)-6-((3-(trifluoromethyl)phenyl)sulfonyl)-1,2,4,4a,5,6-hexahydro-3H-pyrazino [1,2-a]quinoxalin-3-yl)ethan-1-one] | 25 | 0.83 | 134 | 3.2
O=C(O)CN1CCN2c3ccc(-c4cc(F)cc(OC(F)F)c4)cc3N(S(=O)(=O)c3cc(C(F)(F)F)cnc3OCCO)C[C@@H]2C1 [Example 91, (S)-2-(8-(3-(difluoromethoxy)-5-fluorophenyl)-6-((2-(2-hydroxyethoxy)-5-(trifluoromethyl)pyridin-3-yl)sulfonyl)-1,2,4,4a,5,6-hexahydro-3H-pyrazino[1,2-a]quinoxalin-3-yl)acetic acid] | 34.1 | 0.47 | 3760 | 4.1
O=S(=O)(c1cccc(C(F)(F)F)c1)N1C[C@H]2COCCN2c2ccc(-c3cc(F)cc(OC(F)F)c3)cc21 [Example 99] | 40.3 | 0.74 | 4840 | 6.3
C[C@@]1(OCCC(N)=O)CCN2c3ccc(-c4cc(F)cc(OC(F)F)c4)cc3N(S(=O)(=O)c3cccc(C(F)(F)F)c3)C[C@@H]2C1 [Example 122, 3-(((6aS,8R)-3-(3-(difluoromethoxy)-5-fluorophenyl)-8-methyl-5-((3-(trifluoromethyl)phenyl)sulfo-nyl)-6,6a,7,8,9,10-hexahydro-5H-pyrido[1,2-a]quinoxalin-8-yl)oxy) propanamide] | 98.4 | 0.68 | 447 | 1.1
NC(=O)OC1CCN2c3ccc(-c4cc(F)cc(OC(F)F)c4)cc3N(S(=O)(=O)c3cccc(C(F)(F)F)c3)C[C@@H]2C1 (stereo partly drawn) [Example 104, (6aS)-3-(3-(difluoromethoxy)-5-fluorophenyl)-5-((3-(trifluoromethyl)phenyl)sulfonyl)-6,6a,7,8,9,10-hexahydro-5H-pyrido[1,2-a]quinoxalin-8-yl carbamate] | 46.3 | 0.81 | 344 | 2.3
O=S1(=O)CCN2c3ccc(-c4cc(F)cc(OC(F)F)c4)cc3N(S(=O)(=O)c3cccc(C(F)(F)F)c3)CC2C1 (stereo not drawn) [Example 102, 8-(3-(difluoromethoxy)-5-fluorophenyl)-6-((3-(trifluoromethyl)phenyl)sulfonyl)-1,2,4,4a,5,6-hexahydro-[1,4]thiazino[4,3-a]quinoxaline 3,3-dioxide] | 809 |  | 2150 | 
CC(=O)N1CCN2c3ccc(C4=CC(C)(C)OC(C)(C)C4)cc3N(S(=O)(=O)c3cccc(C(F)(F)F)c3)C[C@@H]2C1 [Example 16, (S)-1-(8-(2,2,6,6-tetramethyl-yl-3,6-dihydro-2H-pyran-4-yl)-6-((3-(trifluoromethyl)phenyl)sulfonyl)-1,2,4,4a, 5,6-hexahydro-3H-pyrazino [1,2-a]quinoxalin-3-yl) ethan-1-one] | 9.52 | 0.78 | 59 | 2.0
CC(C(=O)O)N1CCN2c3ccc(C4=CC(C)(C)OC(C)(C)C4)cc3N(S(=O)(=O)c3cccc(C(F)(F)F)c3)C[C@@H]2C1 (stereo partly drawn) [Example 27, 2-((S)-8-(2,2,6,6-tetrameth-yl-3,6-dihydro-2H-pyran-4-yl)-6-((3-(trifluorometh-yl)phenyl)sulfonyl)-1,2,4,4a,5,6-hexahydro-3H-pyrazino[1,2-a]quinoxalin-3-yl)propanoic acid] | 5.25 | 0.61 | 228 | 3.9
CN1CCN(S(=O)(=O)c2cccc(C(F)(F)F)c2)c2cc(-c3cc(F)cc(OC(F)F)c3)ccc21 [Example 1, 6-(3-(difluoromethoxy)-5-fluorophenyl)-1-methyl-4-((3-(trifluoromethyl)phenyl)sulfonyl)-1,2,3,4-tetrahydroquinoxaline] | 18.4 | 1.61 | 518 | 3.3
CCOC(=O)CN1CCN2c3ccc(/C=C/c4c(Cl)cccc4C(F)(F)F)cc3N(S(=O)(=O)c3cccc(C(F)(F)F)c3)C[C@@H]2C1 [Example 46, ethyl (S,E)-2-(8-(2-chloro-6-(trifluoromethyl)styryl)-6-((3-(trifluoromethyl)phenyl)sulfonyl)-1,2,4,4a,5,6-hexahydro-3H-pyrazino [1,2-a]quinoxalin-3-yl)acetate] | 5.29 | 0.72 | 924 | 4.0
O=S(=O)(c1cccc(C(F)(F)F)c1)N1CC2C[S+]([O-])CCN2c2ccc(-c3cc(F)cc(OC(F)F)c3)cc21 (stereo not drawn) [Example 101, 8-(3-(difluoromethoxy)-5-fluorophenyl)-6-((3-(trifluoromethyl)phenyl)sulfonyl)-1,2,4,4a,5,6-hexahydro-[1,4]thiazino[4,3-a]quinoxaline 3-oxide] | 40.9 | 0.45 | 913 | 3.9
N#Cc1cc(F)cc(-c2ccc3c(c2)N(S(=O)(=O)c2cccc(C(F)(F)F)c2)C[C@@H]2CN(CC(=O)O)CCN32)c1 [Example 95, (S)-2-(8-(3-cyano-5-fluorophe-nyl)-6-((3-(trifluoromethyl)phe-nyl)sulfonyl)-1,2,4,4a,5,6-hexa-hydro-3H-pyrazino[1,2-a]quin-oxalin-3-yl)acetic acid] | 41.9 | 0.40 | 649 | 1.4
CC1(C)C=C(c2ccc3c(c2)N(S(=O)(=O)c2cccc(C(F)(F)F)c2)C[C@@H]2CNCCN32)CC(C)(C)O1 [Example 13, (S)-8-(2,2,6,6-tetramethyl-3,6-dihydro-2H-pyran-4-yl)-6-((3-(trifluorometh-yl)phenyl)sulfonyl)-2,3,4,4a,5,6-hexahydro-1H-pyrazino[1,2-a]quinoxaline] | 35.8 | 0.74 | 1420 | 1.7
CCOC(=O)CN1CCN2c3ccc(/C=C(\C)c4c(F)cccc4Cl)cc3N(S(=O)(=O)c3cccc(C(F)(F)F)c3)C[C@@H]2C1 [Example 43, ethyl (S,E)-2-(8-(2-(2-chloro-6-fluorophenyl)prop-1-en-1-yl)-6-((3-(trifluoromethyl)phenyl)sulfonyl)-1,2,4,4a,5,6-hexahydro-3H-pyrazino[1,2-a]quinoxalin-3-yl)acetate] | 17.2 | 0.87 | 162 | 3.0
C/C(=C\c1ccc2c(c1)N(S(=O)(=O)c1cccc(C(F)(F)F)c1)C[C@@H]1CN(C(CO)CO)CCN21)c1c(F)cccc1Cl [Example 69, (S,E)-2-(8-(2-(2-chloro-6-fluorophenyl)prop-1-en-1-yl)-6-((3-(trifluoromethyl)phenyl)sulfonyl)-1,2,4,4a,5,6-hexahydro-3H-pyrazino[1,2-a]quinoxalin-3-yl)propane-1,3-diol] | 44.4 | 1.05 | 600 | 5.8
CS(=O)(=O)N1CCN2c3ccc(-c4cc(F)cc(OC(F)F)c4)cc3N(S(=O)(=O)c3cccc(C(F)(F)F)c3)C[C@@H]2C1 [Example 8, (S)-8-(3-(difluoromethoxy)-5-fluorophenyl)-3-(methylsulfonyl)-6-((3-(trifluoromethyl)phenyl)sulfonyl)-2,3,4,4a,5,6-hexahydro-1H-pyrazino[1,2-a]quinoxaline] | 13.3 | 1.22 | 90.4 | 5.5
CC(=O)N1CCN2c3ccc(-c4cc(F)cc(OC(F)F)c4)cc3N(S(=O)(=O)c3cccc(C(F)(F)F)c3)C[C@@H]2C1 [Example 7, (S)-1-(8-(3-(difluoromethoxy)-5-fluorophenyl)-6-((3-(trifluoromethyl)phenyl)sulfonyl)-1,2,4,4a,5,6-hexahydro-3H-pyrazino[1,2-a]quinoxalin-3-yl)ethan-1-one] | 17.5 | 1.45 | 145 | 3.7

Source: US20220009894A1, “1,2,3,4-TETRAHYDROQUINOXALINE DERIVATIVE, PREPARATION METHOD THEREFOR AND APPLICATION THEREOF” (Abbisko Therapeutics Co., Ltd., priority 2019, published 2022)
